Laboratory results from patent US11066369B2, “N-(pyridin-2-yl)pyridine-sulfonamide derivatives and their use in the treatment of disease” (Novartis AG, priority 2016, dated 2021).

How the values were obtained:
delF508-CFTR = target: T1, delF508-CFTR (Homo sapiens, UniProt P13569, DEL508-508); assay: Measurement of delF508-CFTR functional activity in primary human bronchial epithelial cells (HBECs) using Multi-Transepithelial Clamp Circuit (MTECC-24) assay; format: cell-based; conditions: primary CF HBECs; for MTECC24 CFHBEC- Amax %: test compound added 24h before assay plus potentiator, relative to reference combination (2 μM corrector + 0.5 μM potentiator); for EC50: test compound added 24h before assay, in the presence of potentiator, mean of at least two replicates, read-out: MTECC24 CFHBEC- EC50
T1 construct: functional activity of the CFTR channel (Chloride ion transport) in patient derived primary human bronchial epithelial cells; host or cells: patient-derived primary human bronchial epithelial cells (delF508-CFTR)
T1 sequence (P13569 with tags, fused parts or gaps DEL508-508): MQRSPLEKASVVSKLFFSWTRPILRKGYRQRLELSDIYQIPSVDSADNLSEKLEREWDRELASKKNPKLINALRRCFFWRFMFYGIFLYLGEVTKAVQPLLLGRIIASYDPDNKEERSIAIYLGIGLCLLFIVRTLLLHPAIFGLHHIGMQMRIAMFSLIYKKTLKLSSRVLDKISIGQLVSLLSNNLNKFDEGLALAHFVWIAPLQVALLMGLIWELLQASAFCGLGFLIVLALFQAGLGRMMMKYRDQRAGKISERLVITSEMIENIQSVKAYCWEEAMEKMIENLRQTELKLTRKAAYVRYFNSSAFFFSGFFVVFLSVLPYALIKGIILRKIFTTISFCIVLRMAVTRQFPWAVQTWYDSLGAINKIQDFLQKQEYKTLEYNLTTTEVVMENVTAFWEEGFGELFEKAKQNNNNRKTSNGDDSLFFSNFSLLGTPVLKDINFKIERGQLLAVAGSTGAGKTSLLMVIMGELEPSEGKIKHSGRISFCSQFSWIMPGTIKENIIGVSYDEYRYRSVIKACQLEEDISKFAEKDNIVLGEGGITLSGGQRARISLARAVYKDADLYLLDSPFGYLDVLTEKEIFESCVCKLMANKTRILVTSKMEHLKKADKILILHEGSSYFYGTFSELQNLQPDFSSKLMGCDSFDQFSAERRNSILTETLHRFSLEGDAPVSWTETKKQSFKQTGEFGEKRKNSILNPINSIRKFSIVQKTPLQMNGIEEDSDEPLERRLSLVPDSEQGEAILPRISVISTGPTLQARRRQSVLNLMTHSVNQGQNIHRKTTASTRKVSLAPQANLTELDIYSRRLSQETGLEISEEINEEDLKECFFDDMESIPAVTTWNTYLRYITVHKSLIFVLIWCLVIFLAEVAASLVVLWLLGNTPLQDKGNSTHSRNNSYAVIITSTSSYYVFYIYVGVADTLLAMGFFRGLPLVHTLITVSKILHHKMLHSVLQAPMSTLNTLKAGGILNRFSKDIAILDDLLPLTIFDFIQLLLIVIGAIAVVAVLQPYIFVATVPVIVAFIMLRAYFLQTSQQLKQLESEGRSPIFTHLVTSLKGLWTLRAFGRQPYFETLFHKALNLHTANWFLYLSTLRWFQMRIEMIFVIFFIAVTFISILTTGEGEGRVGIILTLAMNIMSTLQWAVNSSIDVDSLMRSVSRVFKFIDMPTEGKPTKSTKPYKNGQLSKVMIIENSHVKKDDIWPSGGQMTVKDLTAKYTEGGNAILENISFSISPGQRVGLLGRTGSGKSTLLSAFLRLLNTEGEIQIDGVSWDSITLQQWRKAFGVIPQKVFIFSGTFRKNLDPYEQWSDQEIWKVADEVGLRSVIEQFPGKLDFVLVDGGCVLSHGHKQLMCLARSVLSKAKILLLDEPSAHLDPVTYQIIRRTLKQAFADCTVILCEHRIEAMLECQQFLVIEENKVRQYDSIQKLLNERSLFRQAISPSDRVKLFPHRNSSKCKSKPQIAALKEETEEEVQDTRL
How it was run: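 Patient-derived primary delF508-CFTR HBECs, differentiated at air-liquid interface ~2 weeks, treated basolaterally with compound for 24 h, then apical and basolateral compound in HEPES pH 7.4 assay medium. Equivalent short-circuit current (Ieq) recorded on MTECC-24 with sequential amiloride, forskolin, potentiator and INH-172; normalized to 0.1% DMSO, EC50 from curve fit.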

[1] = target: T2, horseradish peroxidase (HRP) tagged delF508-CFTR (Homo sapiens, UniProt P13569, DEL508-508); assay: Measurement of delF508-CFTR-HRP surface expression in CFBE41o- cells; format: cell-based; conditions: delF508-CFTR-HRP surface expression, CFBE41o- cells; for Emax: read-out: DelF508-CFTR-HRP Amax %; for EC50: read-out: DelF508-CFTR-HRP EC50;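 on DelF508-CFTR-HRP Amax %: percent efficacy relative to reference corrector lumacaftor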
T2 construct: expressed in transfected cells
T2 sequence (P13569 with tags, fused parts or gaps DEL508-508): as above
How it was run: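 CFBE41o- bronchial epithelial cells stably expressing delF508-CFTR with HRP in the fourth extracellular loop; expression induced 48h with 500 ng/mL doxycycline, then compounds added (top 10 μM, 10-point 3-fold series, ≤0.5% DMSO) for 24h at 37° C. Surface HRP measured by luminescence with cell-impermeant substrate; EC50 from logistic fit of triplicates, plate-normalized to lowest concentration; efficacy also relative to a reference corrector.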

| Compound | MTECC24 CFHBEC- Amax % (delF508-CFTR) [%] | EC50 (delF508-CFTR) [nM] | Emax [1] [%] | EC50 [1] [nM] |
| --- | --- | --- | --- | --- |
| O=C(O)[C@H]1CCCN(c2cccc(S(=O)(=O)Nc3ccc(C(F)(F)F)c(-c4ccccc4C4CCC4)n3)n2)C1 [Example 367, (S)-1-(6-(N-(6-(2-cyclobutylphenyl)-5-(trifluoromethyl)pyridin-2-yl)sulfamoyl)pyridin-2-yl)piperidine-3-carboxylic Acid] | 91.2 | 1.4 | 809 | 928 |
| CC1(C(=O)O)CCCN(c2cccc(S(=O)(=O)Nc3ccc(C(F)(F)F)c(-c4ccccc4C4CCC4)n3)n2)C1 (centres unmarked) [Example 368, 1-(6-(N-(6-(2-cyclobutylphenyl)-5-(trifluoromethyl)pyridin-2-yl)sulfamoyl)pyridin-2-yl)-3-methylpiperidine-3-carboxylic Acid] | 66.2 | 0.152 | – | 671 |
| CCc1ccccc1-c1nc(NS(=O)(=O)c2cccc(N3CCC[C@H](C(=O)O)C3)n2)ccc1C(F)(F)F [Example 370, (S)-1-(6-(N-(6-(2-ethylphenyl)-5-(trifluoromethyl)pyridin-2-yl)sulfamoyl)pyridin-2-yl)piperidine-3-carboxylic Acid] | 105.9 | 0.85 | 601 | 1470 |
| CCc1ccccc1-c1nc(NS(=O)(=O)c2cccc(N3CCCC(C)(C(=O)O)C3)n2)ccc1C(F)(F)F (centres unmarked) [Example 371, 1-(6-(N-(6-(2-ethylphenyl)-5-(trifluoromethyl)pyridin-2-yl)sulfamoyl)pyridin-2-yl)-3-methylpiperidine-3-carboxylic Acid] | 254.3 | 1.97 | 962 | 1130 |
| C[C@]1(C(=O)O)CCCN(c2cccc(S(=O)(=O)Nc3ccc(C(F)(F)F)c(-c4ccccc4C4CCC4)n3)n2)C1 [Example 373, (S)-1-(6-(N-(6-(2-cyclobutylphenyl)-5-(trifluoromethyl)pyridin-2-yl)sulfamoyl)pyridin-2-yl)-3-methylpiperidine-3-carboxylic Acid] | 93.1 | 1.17 | 367 | 273 |
| CCc1ccccc1-c1nc(NS(=O)(=O)c2ccnc(N3CCC(C)(C(=O)O)CC3)c2)ccc1C(F)(F)F [Example 374, 1-(4-(N-(6-(2-ethylphenyl)-5-(trifluoromethyl)pyridin-2-yl)sulfamoyl)pyridin-2-yl)-4-methylpiperidine-4-carboxylic Acid] | 39.8 | 133 | 233 | 2780 |
| CC(C)c1ccccc1-c1nc(NS(=O)(=O)c2cccc(N3CCC[C@@H](C(=O)O)C3)n2)ccc1C(F)(F)F [Example 375, (R)-1-(6-(N-(6-(2-isopropylphenyl)-5-(trifluoromethyl)pyridin-2-yl)sulfamoyl)pyridin-2-yl)piperidine-3-carboxylic Acid] | 63.5 | 0.682 | – | 1210 |
